Measurements published in PubChem BioAssay (NCI).
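Tested at 5 concentrations; 48 h exposure; 96-well plates; endpoints linearly interpolated, else capped at highest concentration. At the TGI there is no net growth.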

Assays:
Experiment in all cases: NCI-60 cell line screen, 48 h
HL-60(TB) leukemia = system: HL-60(TB) leukemia
UACC-257 melanoma = system: UACC-257 melanoma
SF-295 CNS = system: SF-295 CNS
DU-145 prostate = system: DU-145 prostate
LOX IMVI melanoma = system: LOX IMVI melanoma
OVCAR-3 ovarian = system: OVCAR-3 ovarian
MDA-N = system: MDA-N
HCT-116 colon = system: HCT-116 colon
PC-3 prostate = system: PC-3 prostate
SW-620 colon = system: SW-620 colon
OVCAR-4 ovarian = system: OVCAR-4 ovarian
NCI/ADR-RES ovarian = system: NCI/ADR-RES ovarian
SK-MEL-2 melanoma = system: SK-MEL-2 melanoma
TK-10 renal = system: TK-10 renal
MDA-MB-231 breast = system: MDA-MB-231 breast
SF-539 CNS = system: SF-539 CNS
CCRF-CEM leukemia = system: CCRF-CEM leukemia
RXF 393 renal = system: RXF 393 renal
A498 renal = system: A498 renal
SK-OV-3 ovarian = system: SK-OV-3 ovarian

Row | SMILES | TGI (HL-60(TB) leukemia) [µM] | TGI (UACC-257 melanoma) [µM] | TGI (SF-295 CNS) [µM] | TGI (DU-145 prostate) [µM] | TGI (LOX IMVI melanoma) [µM] | TGI (OVCAR-3 ovarian) [µM] | TGI (MDA-N) [µM] | TGI (HCT-116 colon) [µM] | TGI (PC-3 prostate) [µM] | TGI (SW-620 colon) [µM] | TGI (OVCAR-4 ovarian) [µM] | TGI (NCI/ADR-RES ovarian) [µM] | TGI (SK-MEL-2 melanoma) [µM] | TGI (TK-10 renal) [µM] | TGI (MDA-MB-231 breast) [µM] | TGI (SF-539 CNS) [µM] | TGI (CCRF-CEM leukemia) [µM] | TGI (RXF 393 renal) [µM] | TGI (A498 renal) [µM] | TGI (SK-OV-3 ovarian) [µM]
1 | CC(=O)Oc1ccn2nc(C)c(Cc3c(C)nn4ccc(OC(C)=O)cc34)c2c1 | > 100 | > 100 | 68.8 | > 100 | > 100 | > 100 | > 10 | > 100 | > 10 | > 100 | > 100 | > 100 | > 100 | > 100 | > 100 | > 100 | 76.6 | – | – | –
2 | O=c1oc2ccccc2c(-c2ccc(O)cc2)c1Oc1ccc(Cl)cc1 | – | 83.8 | 60.6 | > 100 | 62 | 39.7 | 67.6 | 35.6 | 97.1 | > 100 | > 100 | 82.3 | 54.2 | 62.1 | 90.6 | > 100 | 52.9 | 57.8 | 77.2 | –
3 | Nc1nc(N)nc(-c2cnc3ccccc3c2)n1 | – | > 100 | > 100 | > 100 | > 100 | > 100 | > 100 | > 100 | > 100 | > 100 | – | > 100 | > 100 | > 100 | > 100 | > 100 | 65.9 | > 100 | > 100 | > 100
4 | CC(=O)OC[C@@]12CC[C@H]3C(C)(C)CCC[C@]3(C)[C@H]1C[C@@H](C1=CC(=O)O[C@H]1O)O2 | – | 9.26 | 21.3 | 20.4 | 3.42 | 3.99 | 5.53 | 9.07 | 17.4 | 19.9 | – | 16.1 | 4.37 | 12 | – | 5.28 | 3.62 | – | – | –
5 | CSc1sc(C)cc1-c1nsc(=O)o1 | > 100 | > 100 | > 100 | > 100 | > 100 | – | > 100 | > 100 | > 100 | > 100 | > 100 | > 100 | – | – | – | – | > 100 | > 100 | > 100 | –
6 | CCOC(=O)CSc1[nH]c2nc(C)nc(Cl)c2c1C#N | > 10 | > 10 | > 10 | > 10 | > 10 | – | > 10 | – | > 10 | > 10 | > 10 | – | – | > 10 | > 10 | – | > 10 | > 10 | – | > 10
7 | CC(C)N(CCCNc1c2ccccc2nc2cccc([N+](=O)[O-])c12)C(C)C | – | < 0.0508 | < 0.0457 | < 0.01 | 0.0637 | – | < 0.01 | 0.391 | 0.527 | < 0.0397 | 0.103 | 3.68 | 0.24 | – | < 0.01 | < 0.0437 | 0.0806 | 0.0377 | 0.0433 | –
8 | Nc1sccc1S(=O)(=O)c1ccsc1N | – | > 100 | > 100 | > 100 | > 100 | > 100 | > 100 | > 100 | > 100 | > 100 | > 100 | > 100 | > 100 | > 100 | > 100 | > 100 | – | – | > 100 | > 100
9 | NS(=O)(=O)c1cc(S(N)(=O)=O)c(NC(=O)Nc2ccc(Cl)c(Cl)c2)c(Cl)c1Cl | – | > 100 | > 100 | – | > 100 | > 100 | > 100 | > 100 | > 100 | > 100 | > 100 | > 100 | > 100 | > 100 | > 100 | – | – | – | – | > 100
10 | CC1=C(C(=O)OCCc2ccc([N+](=O)[O-])cc2)C(c2ccccc2C(F)(F)F)C(C(=O)OC(C)C)=C(C)N1 (stereo unspecified) | – | > 100 | > 100 | > 100 | > 100 | > 100 | > 100 | > 100 | > 100 | > 100 | > 100 | > 100 | 7.16 | > 100 | > 100 | > 100 | > 100 | 7.34 | – | 30.6
11 | Fc1ccc(C2(CCCN3CCc4[nH]c5cc(F)ccc5c4C3)OCCO2)cc1 | 25.7 | 16.5 | 27.4 | 28 | 25.4 | – | – | 24 | – | 27.7 | 26.7 | > 100 | – | 28.1 | 35 | 25.5 | 31.4 | 26.7 | 28.9 | 26.7
